The record followed here is article PMC3229595, “Discovery of Novel MDR-Mycobacterium tuberculosis Inhibitor by New FRIGATE Computational Screen” (PLoS ONE, 2011).

By Kd is commonly meant the equilibrium constant for the complex coming apart.

SMILES strings stand for the structures. Values after ≈ are worked out from the molar mass of the structure shown.

One test addresses T1, antigen 85C (Ag85C) (Mycobacterium tuberculosis, UniProt P9WQN9).
T1 construct: gene fbpC
Description: […]-HSQC NMR titration (chemical shift perturbation). The format is binding.

For test [1], the system named is T2, Mycobacterium smegmatis Msmeg.
T2 construct: DSM 43465
Kind of test: microbe, parasite or virus in culture. Also noted: species or system Mycobacterium smegmatis DSM 43465; broth microdilution MIC in CAMHB, MTT staining, visual read-out. Particulars: Mycolicibacterium smegmatis; read-out: Msmeg growth inhibition [MIC ug/mL]. The method, then: The BEI parameter is conceptually very similar to previously published ligand efficiency (LE) parameters that normalize logarithmic affinity by non-hydrogen atom count rather than molecular weight ^5-7. Experimental Section Antibacterial in vitro assay for M. smegmatis. For MIC assays according to the Clinical and Laboratory Standards Institute M. smegmatis (strain DSM 43465) cells were grown in CAMHB medium at 35°C to an OD625nm higher than 0.09 followed by a dilution in medium to reach OD625nm of […] (“0.5 McFarland Standard”). These cell suspensions were brought to approximately 1 * 10^6 CFU/ml which corresponds to a 1:200 dilution. Resulting cell inoculi were diluted 1:1 with medium containing increasing concentrations of test compound as indicated in 96 well plates in duplicates (cell titer and purity of inoculum was checked in parallel by plating out on CAMHB-agar). After 24 – 48 h incubation MTT-solution (5 mg/ml thiaolyl blue tetrazoliumbromide) were added to stain wells with living cells and plates were photographed ^8. Wells with the lowest concentration of compound that were free of the dark brown color of bacteria were considered MICs. Ampicillin was used as a positive control antibiotic. Learning from the rich literature of potent in vitro enzyme inhibitors that were discarded due to the lack of antibacterial activity, we assayed the 31 selected FRIGATE hits for antibacterial activity prior to in vitro follow-up work. We utilized the less pathogenic and faster growing Mtb model organism Msmeg for primary growth inhibition testing.

T1 sequence (P9WQN9 46-340): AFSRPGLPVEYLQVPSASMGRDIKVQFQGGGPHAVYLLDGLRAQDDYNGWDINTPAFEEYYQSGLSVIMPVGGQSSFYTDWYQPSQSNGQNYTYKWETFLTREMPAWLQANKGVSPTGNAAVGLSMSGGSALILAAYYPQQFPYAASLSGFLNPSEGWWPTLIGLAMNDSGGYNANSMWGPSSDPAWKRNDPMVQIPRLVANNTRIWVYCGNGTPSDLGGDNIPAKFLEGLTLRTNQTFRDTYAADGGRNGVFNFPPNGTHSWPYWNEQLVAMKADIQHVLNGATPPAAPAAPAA

In the case of `Cc1cccn2c(=O)c3cc(C(=O)NCCCn4ccnc4)n(Cc4ccccc4)c3nc12` [compound 1, N-[3-(1H-imidazol-1-yl)propyl]-1-benzyl-9-methyl-4-oxo-1,4-dihydropyrido[1,2-a]pyrrolo[2,3-d]pyrimidine-2-carboxamide], the Kd at antigen 85C (Ag85C) worked out at 177 µM. The MIC in test [1] is less than 50 µg/mL.
In the case of `CC1=C(C#N)c2nc(N)c(C#N)cc2C1=Cc1ccc(-c2ccccc2C(=O)O)o1` [compound 2, 2], in test [1], the MIC was more than 200 µg/mL.
Still for that read-out and setting: with `OC(CNC1CCc2ccccc21)COc1ccc(-c2csnn2)cc1` (stereo not shown) [compound 3, 3] the figure was 100 µg/mL (≈ 272 µM).
